Measured values published in US20240050413A1, “COMPOSITIONS AND METHODS FOR TREATING MULTIPLE SCLEROSIS AND ALLEVIATING FATIGUE” (University of Miami, priority 2020, published 2024).
Where “and” joins values, the source holds several entries; their conditions need not be identical. Equal values may be shown once.

Legend:
Type in all cases: in vivo, human
[1] = tested on: MS subjects with severe fatigue; assay: Sequential dose escalation study of fatigue in multiple sclerosis (VAFS, FSS, MFIS, Epworth sleep scale, satiety scale, adverse events); conditions: for improvement in the MFIS: on-drug vs off-drug
Protocol: Three groups of subjects participated in a sequential dose escalation protocol. All subjects received a fixed dose of carbidopa, 50 mg po bid. […] Tablets of the study drugs were produced by the research pharmacy at the University of Miami. Carbidopa was prepared in 50 mg, and 1-histidine at 250 mg strength. Drug dispensation was carried out by the research pharmacist according to the dosage designated for each group.
Benefits and adverse events were documented and reported to the Data Safety Monitoring Body (DSMB). After approval from the DSMB, group 2 was started. Group 2 received 500 mg po bid of L-histidine. Once again after approval from the DSMB, following the successful completion of group 2, escalation to group 3, namely 1 gm po bid of L-histidine was completed. All subjects agreed to participate with 2 lumbar punctures each a week apart, for collection of cerebrospinal fluid (CSF) for the PK/PD part of the study. Each group required the participation of 3 MS subjects and 1 normal individual. For whatever reason if a subject could not complete the study, the design permitted substitution so every group will have three MS subjects and a normal subject that completed the trial.
After informed consent, subjects were screened at the first visit to meet inclusion/exclusion criteria and baseline laboratory studies were obtained including complete blood counts, comprehensive metabolic panel, thyroid panel, and inventory of health measures, including a complete general examination as well as EKG. Subjects completed questionnaires that included the following: Visual Analogue Fatigue Scale (VAFS), fatigue severity scale (FSS), modified fatigue impact scale (MFIS), Epworth sleep scale, Satiety scale, and Center for Epidemiologic Studies Depression Scale. Within 30 days of their screening visit, subjects returned for their baseline visit. The questionnaires were completed again, and subjects underwent the baseline lumbar puncture for collection of baseline cerebrospinal fluid (CSF).
The study medication for the appropriate group was dispensed and all subjects took the first dose of the study drug during this visit.
(§1) Medications were dispensed for 7 days. On day 8, subjects arrived at the center and received the final dose of the study drug and timed from that dosing for the PK/PD studies.
(§2) Blood samples were collected at drug administration, and every 30 minutes for 4 hours. At 90 minutes the second and final lumbar puncture was completed, and CSF obtained for measurement of L-histidine and histamine. All subjects completed the same questions to determine the effects of the treatment on fatigue, wakefulness and satiety.
All subjects were recruited from the MS Center at the University of Miami. Subjects who complained of severe and persistent fatigue of duration longer than 6 months were eligible to be screened for the study. During screening inclusion and exclusion criteria were carefully reviewed. To be eligible, a subject needed to have a definite diagnosis of MS by the McDonald International Criteria and severe fatigue with a mean Fatigue Severity Score (FSS) of 5.0 or greater (maximum mean FSS=7.0). Patients with confounding factors such as anemia, untreated hypothyroidism, depression, concomitant medication that caused fatigue were carefully examined and excluded. Use of stimulants and concomitant use of medications for treatment of fatigue such as modafinil was excluded. Use of caffeine was not restricted, but patients were instructed not to change the usage. Pregnant or lactating females were not included in the study. Patients were cautioned not to use over-the-counter medications without approval of the PI during the study, especially medications for sleep or allergies including but not limited to the use of oral steroids or antihistamines with potential to confound the results of the trial.
They were spouses of patients who participated in this trial. […]

[2] = PK/PD: L-histidine levels in plasma and CSF after final dose
Protocol: as §1, §2
On day 7 from the baseline, the end-of-study visit, subjects arrived at the center without taking the last dose, which was administered under supervision and timed for time-zero. Baseline samples of blood for serum and plasma were collected and blood samples were obtained every half-hour for 6 hours.
At 90 minutes post administration a lumbar puncture was performed, and 0.5 ml aliquots of spinal fluid were collected for a total of 5 minutes. Spinal fluid, serum, and plasma were frozen at -80C until analysis for levels of histidine, histamine and metabolomic studies.
L-Histidine and L-Histidine-^13G6 analytical standards (Sigma Aldrich) were prepared in LC-MS grade water with 0.1% formic acid (FA). 25 μL of sample (CSF or blood) or calibration standard was mixed with 75 μL of LC-MS grade water with 0.1% FA and 200 μL of 2.5 μM L-Histidine-^13G6. […]

CSF biochemicals = assay: Metabolomics in the cerebrospinal fluid after histidine loading
Excerpt: Four CSF samples from normal subjects (2 before histidine loading and 2 after) and 12 CSF samples from MS patients (6 before and 6 after histidine loading) were examined in this study. The MS samples were evenly distributed from 3 responders and 3 non-responder MS subjects. The dataset comprised a total of 494 biochemicals, 434 known and 60 unknown entities. […] A summary of the biochemicals that achieved significance (p≤0.05) as also those approaching significance (0.05<p<0.10), were examined. All assays also examined estimates of false discoveries (q-value) inherent in estimates that use multiple comparisons. A low q-value (<0.1) gave confidence in a result with a low p value as a potentially meaningful result.

[3] = Group 1: 150 mg po bid of L-histidine and carbidopa 50 mg po bid, one individual
[4] = Group 2: 500 mg po bid of L-histidine and carbidopa 50 mg po bid, single subject
[5] = Group 2 responder, 500 mg po bid of L-histidine and carbidopa 50 mg po bid
[6] = short exposure to the study drug
[7] = following histidine loading, lower prior to loading
[8] = responder population after histidine loading, FIG. 8

N[C@@H](Cc1c[nH]cn1)C(=O)O [L-histidine]
adverse events ([1]; Group 1: 150 mg po bid of L-histidine and carbidopa 50 mg po bid): No adverse events were reported
response in fatigue scales (VAFS, FSS, MFIS) [1, 3]: improved fatigue scores in all three fatigue scales
improvement in the MFIS [1, 3]: 30%
response in fatigue scales (VAFS, FSS, MFIS) [1, 4]: improvement in all 3 fatigue scales
improvement in the MFIS [1, 4]: 81%
cognition (written narrative) [1, 5]: able to think clearly, have better focus, and improved cognition
libido and sexual activity (written narrative) [1, 5]: Remarkable improvement of libido and sexual activity
overall quality of life (written narrative) [1, 5]: marked improvement in overall quality of life
relief from fatigue (written narratives) ([1]; Group 3: L-histidine 1 gm po bid and carbidopa 50 mg po bid): The relief from fatigue was complete
response in fatigue scales (VAFS, FSS, MFIS) ([1]; Group 3: L-histidine 1 gm po bid and carbidopa 50 mg po bid, MS subjects): three of the three MS subjects noticed remarkable improvement
improvements of MFIS better than off-drug scores ([1]; Group 3: L-histidine 1 gm po bid and carbidopa 50 mg po bid, three MS subjects, one value each): 69% and 74% and 82%
day on which subjects noticed the change ([1]; all subjects who noted improvement, at whatever dose, response sustained until study drug discontinued): ~2 days
adverse events ([1]; normal subjects): Nor did they experience any adverse events
benefit from the study drug ([1]; normal subjects (no MS, no fatigue)): did not notice any benefit
subset scores of MSFC (post-hoc examination) ([1]; responders, physical, cognitive and psychosocial domains): improvement of all three domains, physical, cognitive and psychosocial
change in satiety scale [1, 6]: A change in satiety scale was not recorded
change in weight [1, 6]: A change in weight was also not recorded
Epworth Sleep Scale (ESS) on study drug ([1]; single fatigue responder with ESS over 10, dropped from 13): 6
reported adverse events ([1]; whole study, all groups): few and related to the lumbar punctures or unrelated intercurrent infections
time after which plasma L-histidine levels became undetectable ([2]; human, in vivo): > 4 h
time of peak levels of L-histidine in the plasma ([2]; plasma, after final dose, FIG. 5A, 500 mg carbidopa arm): 2 h
Histamine levels in the CSF (CSF biochemicals; FIG. 7): below the level of detection sensitivity
Histidine levels in CSF after loading (CSF biochemicals; MS patients and normal subjects, FIG. 7): increased after loading similarly in MS patients and normal subjects
Deoxycarnitine in CSF (CSF biochemicals; after histidine loading): increased
NAA levels in CSF (CSF biochemicals; after histidine loading): increased
Carnosine and homocarnosine levels in CSF (CSF biochemicals; after histidine loading, FIG. 7): did not change significantly
levels of carnosine and homocarnosine (CSF biochemicals; after the intervention (concluding statement)): increases the levels
Acetoacetate in CSF (CSF biochemicals; [7]): increased following histidine loading
beta hydroxybutyrate in CSF (CSF biochemicals; [7]): increased following histidine loading
cis-aconitate in CSF (CSF biochemicals; post dosing, MS subjects): increases were observed
citrate in CSF (CSF biochemicals; post dosing, MS subjects): increases were observed
Creatine phosphate in CSF (CSF biochemicals; [8]): increased
N-acetylaspartate (NAA) in CSF (CSF biochemicals; [8]): increased
